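Briefly, cells in 96-well plates were exposed to five compound concentrations for 48 h, and endpoints were estimated by linear interpolation. Abbreviation: GI50, concentration required for 50% inhibition of growth. TGI: total growth inhibition.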
Columns and labels:
Experiment in all cases: growth of human tumour cells (NCI), 48 h
[1] = test system: MDA-MB-435
[2] = test system: A549 NSCLC
[3] = test system: SNB-19 CNS
[4] = test system: OVCAR-4 ovarian
[5] = test system: HT29 colon
[6] = test system: BT-549 breast
[7] = test system: NCI-H522 lung
[8] = test system: OVCAR-3 ovarian
[9] = test system: UO-31 renal
[10] = test system: MALME-3M melanoma
[11] = test system: SR leukemia
[12] = test system: SK-MEL-28 melanoma
[13] = test system: HCT-116 colon
[14] = test system: ACHN renal
[15] = test system: RPMI-8226 leukemia
[16] = test system: SF-295 CNS
[17] = test system: SK-MEL-2 melanoma
[18] = test system: OVCAR-8 ovarian
[19] = test system: LOX IMVI melanoma
[20] = test system: HS 578T breast
[21] = test system: NCI-H460 lung
[22] = test system: SK-OV-3 ovarian
[23] = test system: 786-0 renal
[24] = test system: MCF7 breast
[25] = test system: UACC-62 melanoma
[26] = test system: DU-145 prostate
[27] = test system: COLO 205 colon
[28] = test system: NCI/ADR-RES ovarian
[29] = test system: K-562 leukemia
[30] = test system: PC-3 prostate
[31] = test system: MDA-MB-231 breast
[32] = test system: SF-539 CNS
[33] = test system: UACC-257 melanoma
[34] = test system: IGROV1 ovarian
[35] = test system: NCI-H226 lung
[36] = test system: HCC-2998 colon
[37] = test system: SW-620 colon
[38] = test system: HL-60(TB) leukemia
[39] = test system: M14 melanoma
[40] = test system: CCRF-CEM leukemia
[41] = test system: A498 renal
[42] = test system: NCI-H23 lung
[43] = test system: KM12 colon
[44] = test system: RXF 393 renal
[45] = test system: U251 CNS
[46] = test system: HOP-62 NSCLC
[47] = test system: HCT-15 colon
[48] = test system: SK-MEL-5 melanoma
[49] = test system: HOP-92 NSCLC
[50] = test system: MOLT-4 leukemia
[51] = test system: T-47D breast
[52] = test system: SNB-75 CNS
[53] = test system: CAKI-1 renal
[54] = test system: SN12C renal
[55] = test system: OVCAR-5 ovarian
[56] = test system: SF-268 CNS

O=C1Nc2ccccc2/C1=C/C(=N/c1nnc(-c2ccc(Cl)cc2)s1)c1ccccc1
GI50 [1]: 2550 nM
TGI [1]: 7.23 µM
GI50 [2]: 7.78 µM
TGI [2]: 23.8 µM
GI50 [3]: 12.6 µM
TGI [3]: 25.4 µM
GI50 [4]: 2560 nM
TGI [4]: 12.2 µM
GI50 [5]: 1940 nM
TGI [5]: 5.61 µM
GI50 [6]: 1790 nM
TGI [6]: 3.66 µM
GI50 [7]: 518 nM
TGI [7]: 1210 nM
GI50 [8]: 1260 nM
TGI [8]: 2660 nM
GI50 [9]: 1400 nM
TGI [9]: 3.48 µM
GI50 [10]: 2070 nM
TGI [10]: 6.18 µM
GI50 [11]: 964 nM
TGI [11]: 6.05 µM
GI50 [12]: 2360 nM
TGI [12]: 5.59 µM
GI50 [13]: 1060 nM
TGI [13]: 2380 nM
GI50 [14]: 1410 nM
TGI [14]: 2830 nM
GI50 [15]: 2070 nM
TGI [15]: 5.4 µM
GI50 [16]: 11.6 µM
TGI [16]: 25.6 µM
GI50 [17]: 3.21 µM
TGI [17]: 9.32 µM
GI50 [18]: 2810 nM
TGI [18]: 10.1 µM
GI50 [19]: 1540 nM
TGI [19]: 3.13 µM
GI50 [20]: 3.25 µM
TGI [20]: 16 µM
GI50 [21]: 5.95 µM
TGI [21]: 21.9 µM
GI50 [22]: 5.86 µM
TGI [22]: 17.4 µM
GI50 [23]: 1720 nM
TGI [23]: 3.4 µM
GI50 [24]: 2360 nM
TGI [24]: 10.8 µM
GI50 [25]: 1930 nM
TGI [25]: 4.58 µM
GI50 [26]: 2520 nM
TGI [26]: 6.9 µM
GI50 [27]: 1770 nM
TGI [27]: 3.4 µM
GI50 [28]: 3.31 µM
TGI [28]: 12.2 µM
GI50 [29]: 1750 nM
TGI [29]: 11.4 µM
GI50 [30]: 1930 nM
TGI [30]: 5.88 µM
GI50 [31]: 2140 nM
TGI [31]: 6.21 µM
GI50 [32]: 1810 nM
TGI [32]: 4.08 µM
GI50 [33]: 2820 nM
TGI [33]: 8.64 µM
GI50 [34]: 2100 nM
TGI [34]: 5.59 µM
GI50 [35]: 3.19 µM
TGI [35]: 13.4 µM
GI50 [36]: 8.11 µM
TGI [36]: 20.9 µM
GI50 [37]: 1210 nM
TGI [37]: 2820 nM
GI50 [38]: 1780 nM
TGI [38]: 5.54 µM
GI50 [39]: 2370 nM
TGI [39]: 6.28 µM
GI50 [40]: 1160 nM
TGI [40]: 4.28 µM
GI50 [41]: 9.03 µM
TGI [41]: 26.1 µM
GI50 [42]: 2960 nM
TGI [42]: 11.2 µM
GI50 [43]: 4.85 µM
TGI [43]: 15.6 µM
GI50 [44]: 1500 nM
TGI [44]: 3.07 µM
GI50 [45]: 4.04 µM
TGI [45]: 15.5 µM
GI50 [46]: 7.16 µM
TGI [46]: 21.5 µM
GI50 [47]: 1400 nM
TGI [47]: 3.28 µM
GI50 [48]: 12.6 µM
TGI [48]: 26.9 µM
GI50 [49]: 969 nM
TGI [49]: 3.03 µM
GI50 [50]: 2270 nM
TGI [50]: 6.01 µM
GI50 [51]: 2310 nM
TGI [51]: 10.2 µM
GI50 [52]: 2530 nM
TGI [52]: 13.7 µM
GI50 [53]: 1430 nM
TGI [53]: 4.92 µM
GI50 [54]: 2160 nM
TGI [54]: 5.97 µM
GI50 [55]: 1810 nM
TGI [55]: 4.86 µM
GI50 [56]: 4.25 µM
TGI [56]: 16.3 µM

Source: PubChem BioAssay (NCI)
